Results reported in EP0452067A2, “Oligosaccharide compounds and preparation thereof” (GENZYME CORPORATION, priority 1990, dated 1991).

What was measured:
Pancreatic Amylase = target: T1, Pancreatic Amylase (Homo sapiens, UniProt P04746); assay: Cleavage pattern of substrates on hydrolysis with pancreatic amylase
T1 sequence (P04746 16-511): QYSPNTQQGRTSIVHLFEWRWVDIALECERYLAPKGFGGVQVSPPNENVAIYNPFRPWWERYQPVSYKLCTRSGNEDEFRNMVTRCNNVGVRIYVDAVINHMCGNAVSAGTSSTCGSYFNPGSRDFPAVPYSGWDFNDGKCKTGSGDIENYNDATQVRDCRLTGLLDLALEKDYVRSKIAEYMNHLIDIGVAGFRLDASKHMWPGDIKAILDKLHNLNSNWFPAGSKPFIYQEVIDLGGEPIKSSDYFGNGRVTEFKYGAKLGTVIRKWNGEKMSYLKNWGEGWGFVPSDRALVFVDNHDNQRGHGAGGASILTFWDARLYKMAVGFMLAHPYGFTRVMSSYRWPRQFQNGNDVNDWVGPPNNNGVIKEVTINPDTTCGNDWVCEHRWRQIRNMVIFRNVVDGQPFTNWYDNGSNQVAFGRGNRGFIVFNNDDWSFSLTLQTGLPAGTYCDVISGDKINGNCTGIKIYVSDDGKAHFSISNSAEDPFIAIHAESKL

[1] = tested on: pancreatic and salivary α-amylase; assay: Cleavage pattern, both amylases; type: biochemical; conditions: range over pancreatic and salivary α-amylase
α-amylase = assay: Determination of kinetic and binding values of α-amylase substrates; type: biochemical; conditions: for Km: 50 mM PIPES pH 7.0, 50 mM NaCl, 5 mM CaCl₂, glucoamylase and maltase, 27°C, corrected for contaminating unblocked substrate
Protocol: All reactions were carried out in 50 mM PIPES buffer (pH 7.0) containing 50 mM NaCl, 5 mM CaCl₂, 10 units glucoamylase and 25 units maltase at 27°C. Each substrate concentration was run in duplicate and at least eight concentrations were examined for each substrate. Data from the reaction progress curves were fit to the Michaelis-Menten equation using Marquardt analysis. The Km values were corrected for contaminating unblocked substrate. The values V and K for the G₇ substrates are the average of two experiments. The error in the kinetic parameters from each experiment was less than 5% from the average reported.

| SMILES | Cleavage Position (% of total) G 1/2 (Pancreatic Amylase) | Cleavage Position (% of total) G 2/3 (Pancreatic Amylase) | Cleavage Position (% of total) G 3/4 (Pancreatic Amylase) | Cleavage Position (% of total) G 4/5 (Pancreatic Amylase) | Total Hydrolysis (%) (Pancreatic Amylase) | cleaved between glucoses 3 and 4 [1] | Vmax, faster than the Bz-G₇-PNP (α-amylase; relative to Bz-G₇-PNP) [%] | Cleavage Position (% of total) G 5/6 (Pancreatic Amylase) | cleaved between glucoses 2 and 3 [1] | Km (α-amylase) [µM] | cleaved between glucose units 1-2 [1] | V/K greater than that of the Bz-G₅-PNP (α-amylase; relative to Bz-G₅-PNP) [%] |
| --- | --- | --- | --- | --- | --- | --- | --- | --- | --- | --- | --- | --- |
| CC(C)(C)[Si](C)(C)OC[C@H]1O[C@H](O[C@H]2[C@H](O)[C@@H](O)[C@@H](O[C@H]3[C@H](O)[C@@H](O)[C@@H](O[C@H]4[C@H](O)[C@@H](O)[C@@H](O[C@H]5[C@H](O)[C@@H](O)[C@@H](O[C@H]6[C@H](O)[C@@H](O)[C@@H](O[C@H]7[C@H](O)[C@@H](O)[C@@H](Oc8ccc([N+](=O)[O-])cc8)O[C@@H]7CO)O[C@@H]6CO)O[C@@H]5CO)O[C@@H]4CO)O[C@@H]3CO)O[C@@H]2CO)[C@H](O)[C@@H](O)[C@@H]1O [Substrate 1, 6-0-t-butyldimethylsilyl-4-nitrophenyl-α-D-maltoheptaoside] | 1.1 % of total | 13.3 % of total | 65.6 % of total | 19.9 % of total | 69.9 | 66 - 67% | 46 |  |  |  |  |  |
| O=[N+]([O-])c1ccc(O[C@H]2O[C@H](CO)[C@@H](O[C@H]3O[C@H](CO)[C@@H](O[C@H]4O[C@H](CO)[C@@H](O[C@H]5O[C@H](CO)[C@@H](O[C@H]6O[C@H](CO)[C@@H](O[C@H]7O[C@H](CO)[C@@H](O[C@H]8O[C@@H]9COC(c%10ccccc%10)O[C@H]9[C@H](O)[C@H]8O)[C@H](O)[C@H]7O)[C@H](O)[C@H]6O)[C@H](O)[C@H]5O)[C@H](O)[C@H]4O)[C@H](O)[C@H]3O)[C@H](O)[C@H]2O)cc1 (stereo partly drawn) [Substrate 2, 4,6-0-benzylidene-4-nitrophenyl-α-D-maltoheptaoside] | 4.0 % of total | 63.1 % of total | 18.9 % of total |  | 15.1 |  |  | 13.6 % of total | 63 - 74% | 92 |  |  |
| CC(C)(C)[Si](C)(C)OC[C@H]1O[C@H](O[C@H]2[C@H](O)[C@@H](O)[C@@H](O[C@H]3[C@H](O)[C@@H](O)[C@@H](O[C@H]4[C@H](O)[C@@H](O)[C@@H](O[C@H]5[C@H](O)[C@@H](O)[C@@H](Oc6ccc([N+](=O)[O-])cc6)O[C@@H]5CO)O[C@@H]4CO)O[C@@H]3CO)O[C@@H]2CO)[C@H](O)[C@@H](O)[C@@H]1O [Substrate 3, 6-0-t-butyldimethylsilyl-4-nitrophenyl-α-D-maltopentaoside] | 59.4 % of total | 40.6 % of total |  |  | 31.6 |  |  |  | 40 - 60% | 87 | 40 - 60% | 19 |
| O=[N+]([O-])c1ccc(O[C@H]2O[C@H](CO)[C@@H](O[C@H]3O[C@H](CO)[C@@H](O[C@H]4O[C@H](CO)[C@@H](O[C@H]5O[C@H](CO)[C@@H](O[C@H]6O[C@@H]7COC(c8ccccc8)O[C@H]7[C@H](O)[C@H]6O)[C@H](O)[C@H]5O)[C@H](O)[C@H]4O)[C@H](O)[C@H]3O)[C@H](O)[C@H]2O)cc1 (stereo partly drawn) [Substrate 4, 4,6-0-benzylidene-4-nitrophenyl-α-D-maltopentaoside] | 2.5 % of total | 19.4 % of total | 78.1 % of total |  | 42.9 | 78 - 84% |  |  |  | 183 |  |  |
